Where a chain is given by its changes, count along the chain named. “Also recorded” adds a separate entry of the source.
B1: WT NRG1α (175-241): wild type human neuregulin 1 fragment, residues 175-241 of SEQ ID NO:4 (SEQ ID NO:5), entire EGF-like motif and α domain (protein)
chain: GTSHLVKCAEKEKTFCVNGGECFMVKDLSNPSRYLCKCQPGFTGARCTENVPMKVQNQEKAEELYQK
modifications: integrin-binding site within human neuregulin, residues 175-241of human neuregulin 1alpha, long version
B2: 3KE (175-241): NRG1α (175-241) with Lys181/Lys185/Lys187 mutated to Glu, SEQ ID NO:6 (3KE, long version) (protein)
chain: B1 chain with K7E, K11E, K13E
modifications: integrin-binding site within human neuregulin, residues 175-241of human neuregulin 1alpha, long version, 3KE mutant

Tests used:
[1] = test system: CHO cells that express recombinant human ErbB4 (ErbB4-CHO); test: ERK1/2 activation in ErbB4-CHO cells, Western blotting; type: cell-based, Chinese hamster; conditions: serum-starved
Method: FIG. 14. […] ErbB4 was stably expressed in CHO cells (designated ErbB4-CHO cells). ErbB4 was detected in a cell lysate of ErbB4-CHO cells by western blotting (top). Serum-starved CHO or ErbB4-CHO cells were stimulated with wt NRG1 (175-222) or the 3KE (175-222) mutant and ERK1/2 activation was measured by Western blotting.
CHO cells express endogenous ErbB2 and ErbB3, but no ErbB4. CHO cells that express ErbB4 were generated by transfecting ErbB4 expression vector (designated ErbB4-CHO). […] It is therefore believed that the direct binding of integrin […] the Ras-MAP kinase pathway in ErbB4-CHO cells.
Transfection: ErbB4 stably transfected cells were generated by transfecting ErbB4 expression plasmid pCDNA3.1 (with a neo gene) to cells and selected for G418 resistance. Western blotting analysis were performed as described above, and mutagenesis was carried out by the Quick-Change method.

[2] = test system: Human M21 melanoma cells; test: M21 cell proliferation, MTS assay; type: cell-based; conditions: for Induction of proliferation of M21 melanoma cells: serum-starved overnight, cultured 48 h, MTS
Method: FIG. 8. […] The mutant NRG1 (175-222) suppressed proliferation induced by wt NRG1 (175-222) (dominant-negative effect). Human M21 melanoma cells were serum-starved overnight and cultured 48 h with wt or mutant GST-NRG1 (175-222). Cell proliferation was measured by using MTS assays. Data are shown as means+/−SE (n=3). […] For 3KE+WT, 10 ng/ml wt NRG1 (175-222) and mutant NRG1 (175-222) were added at the indicated concentrations. […] P<0.0001 between wt and 3KE, p=0.0001 between wt and 3KE+wt by 2-way ANOVA. There is no statistical significance between 3KE and 3KE+wt (p=0.58).
(§1) Cell proliferation: cells were starved by culturing DMEM with low-level FCS (e.g., 0.4%) overnight and then treated with the wt or mutant NRG1 (175-222) (up to 100 ng/ml). The cells were harvested in 15 min to 6 h after stimulation and cell lysates analyzed by western blotting with antibodies specific to signaling molecules. Alternatively, cells were cultured for 24-48 h after stimulation for testing proliferation or cell viability by MTS assays. Statistical analysis and calculation of kinetic constants were performed using Prism software (Graphpad).

[3] = test system: Human MCF-7 breast cancer cells; test: MCF-7 cell proliferation, MTS assay; type: cell-based; conditions: serum-starved overnight, cultured 48 h, P=0.0018
Method: FIG. 12. Effect of wt and 3KE NRG1 (175-222) on the proliferation of MCF-7 cells. Human MCF-7 breast cancer cells were serum-starved overnight and cultured 48 h with wt or mutant GST-NRG1 (175-222). Cell proliferation was measured by using MTS assays. […] P=0.0018 by 2-way ANOVA.
as §1

[4] = molecular target: T1, CHO cells that express human α6β4 (Homo sapiens, UniProt P16144+P23229); test: Cell adhesion assay, α6β4-CHO cells; type: cell-based; conditions: DMEM, 1 h at 37° C.
T1 construct: expressed in transfected cells; host or cells: CHO
Method: FIG. 17. CHO cells that express human α6β4 adhered to wt NRG1 (175-222) but not to the 3KE (175-222) mutant. Wells of 96-well microtiter plate were coated with wt or 3KE mutant NRG1 (175-222) and incubated with α6β4-CHO or β1-CHO cells in DMEM for 1 h at 37° C. as described herein. Bound cells were quantified.

[5] = test system: mock-transfected K562 cells; test: Cell adhesion assay, mock-transfected K562 cells; type: cell-based, human
Method: FIG. 5. […] Adhesion assays was performed using αvβ3-K562 (left) or mock transfected cells (right) as described herein. The data is shown as means+/−SEM of triplicate experiments.
Cell adhesion and soluble integrin binding assays were performed as described previously (Mori, et al., 2008). NRG1α (175-241) was immobilized to wells of 96-well microtiter plate overnight at 4° C. in 0.1 M carbonate buffer, pH 2 9.4. Remaining protein binding sites were blocked by incubating with 200 μl of 0.1% BSA in PBS for 60 min at room temperature. Wells were then incubated with soluble integrin αvβ3 in 50 μl in Hepes-Tyrode's buffer supplemented with 1 mM Mn2+ at room temperature for 60 min. After rinsing the wells with the same buffer, bound integrins were determined by horseradish peroxidase (HRP)-conjugated anti-His tag mouse IgG and substrate 3,3′,5,5′-tetramethylbenzidine of HRP.

[6] = molecular target: T2, αvβ3-ErbB3 complex (Homo sapiens, UniProt P05106+P06756+P21860); test: Co-immunoprecipitation of integrin αvβ3 and ErbB3 in MCF-7 cells; type: cell-based; conditions: for Co-precipitation of integrin β3 with ErbB3 in MCF-7 cells: 5 nM, 5-30 min
T2 construct: endogenous in cells; host or cells: MCF-7
Method: FIG. 21. WT NRG1α (175-241) induced co-precipitation of integrin αvβ3 and ErbB3, while 3KE (175-241) is defective in this function. a) MCF-7 cells were serum-starved overnight and stimulated with WT or 3KE NRG1α (175-241) at indicated time points. In the present invention, 1 mg protein of cell lysate was used for immuno-precipitation of the αvβ3-ErbB3 complex with anti-ErbB3 antibody Immunoprecipitated materials were analyzed by Western blotting using antibodies specific to ErbB3, phosphorylated ErbB3, or integrin β3. The levels of ErbB3 phosphorylation were less with the 3KE mutant (175-241). Integrin αvβ3 was co-immuno-precipitated with the ErbB3 in 5-30 min upon stimulation with WT NRG1α (175-241), while the 3KE (175-241) mutant was defective in this function. b) Levels of β3 coprecipitation. In the present invention, the levels of β3 co-precipitation from digital images was quantified using ImageJ. The data are normalized with time 0 as 1 from two independent experiments.
Five minutes to 3 h after treatment with 5 nM WT or 3KE mutant NRG1α (175-241), MCF-7 cells were washed with ice-cold PBS and lysed with lysis buffer. The cell lysate was incubated with anti-ErbB3 overnight at 4° C. The immune complex was recovered by incubating with protein A Sepharose (GE Healthcare) for 1 hour at 4° C. and washed three times with wash buffer (20 mM HEPES (pH 7.4), 100 mM NaCl, 10% Glycerol, 0.5% NP-40, 1 mM MgCl2, 5 mM EDTA, 0.5% Triton X-100, 1 mM phenylmethylsulfonyl fluoride, 20 mM NaF, 1 mM Na3VO4, protease inhibitor cocktail (Sigma-Aldrich)). The immunoprecipitates were analyzed by western blotting with antibodies specific to integrin β3.

T2 sequence (P21860 20-1342): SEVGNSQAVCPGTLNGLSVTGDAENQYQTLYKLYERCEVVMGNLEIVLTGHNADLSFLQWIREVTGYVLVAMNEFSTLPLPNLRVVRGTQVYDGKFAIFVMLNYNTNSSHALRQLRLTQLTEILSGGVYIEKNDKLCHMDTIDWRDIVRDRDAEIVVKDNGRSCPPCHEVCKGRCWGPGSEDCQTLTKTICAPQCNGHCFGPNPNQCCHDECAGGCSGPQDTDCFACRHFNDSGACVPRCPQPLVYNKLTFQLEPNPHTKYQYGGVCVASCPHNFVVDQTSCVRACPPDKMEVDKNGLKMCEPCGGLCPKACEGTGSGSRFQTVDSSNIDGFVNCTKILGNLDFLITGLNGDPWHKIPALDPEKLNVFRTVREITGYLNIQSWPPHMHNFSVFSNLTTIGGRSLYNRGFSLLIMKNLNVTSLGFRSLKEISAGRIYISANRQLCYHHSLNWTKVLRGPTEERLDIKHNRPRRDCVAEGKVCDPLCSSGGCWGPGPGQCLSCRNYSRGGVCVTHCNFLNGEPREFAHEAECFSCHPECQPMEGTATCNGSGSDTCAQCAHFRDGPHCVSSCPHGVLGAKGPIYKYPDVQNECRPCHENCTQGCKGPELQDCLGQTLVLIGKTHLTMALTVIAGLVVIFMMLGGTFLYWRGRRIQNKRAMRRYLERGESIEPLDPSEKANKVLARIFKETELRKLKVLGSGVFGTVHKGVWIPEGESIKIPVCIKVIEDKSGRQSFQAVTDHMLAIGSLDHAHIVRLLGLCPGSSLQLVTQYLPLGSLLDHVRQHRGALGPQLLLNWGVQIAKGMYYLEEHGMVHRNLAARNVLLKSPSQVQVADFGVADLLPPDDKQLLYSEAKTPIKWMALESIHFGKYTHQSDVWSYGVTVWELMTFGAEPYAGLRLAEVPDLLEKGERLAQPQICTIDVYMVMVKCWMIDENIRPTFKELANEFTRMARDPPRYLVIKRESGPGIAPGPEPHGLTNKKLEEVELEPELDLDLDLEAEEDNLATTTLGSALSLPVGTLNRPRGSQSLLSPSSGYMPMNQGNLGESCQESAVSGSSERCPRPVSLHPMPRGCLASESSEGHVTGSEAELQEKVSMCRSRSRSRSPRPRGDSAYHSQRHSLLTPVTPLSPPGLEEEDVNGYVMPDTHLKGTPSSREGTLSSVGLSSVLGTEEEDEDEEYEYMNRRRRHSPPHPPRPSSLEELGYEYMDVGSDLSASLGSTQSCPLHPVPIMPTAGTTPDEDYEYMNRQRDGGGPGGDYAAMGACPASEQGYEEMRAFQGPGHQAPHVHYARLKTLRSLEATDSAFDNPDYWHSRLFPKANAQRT
T2 sequence (P06756 31-1048): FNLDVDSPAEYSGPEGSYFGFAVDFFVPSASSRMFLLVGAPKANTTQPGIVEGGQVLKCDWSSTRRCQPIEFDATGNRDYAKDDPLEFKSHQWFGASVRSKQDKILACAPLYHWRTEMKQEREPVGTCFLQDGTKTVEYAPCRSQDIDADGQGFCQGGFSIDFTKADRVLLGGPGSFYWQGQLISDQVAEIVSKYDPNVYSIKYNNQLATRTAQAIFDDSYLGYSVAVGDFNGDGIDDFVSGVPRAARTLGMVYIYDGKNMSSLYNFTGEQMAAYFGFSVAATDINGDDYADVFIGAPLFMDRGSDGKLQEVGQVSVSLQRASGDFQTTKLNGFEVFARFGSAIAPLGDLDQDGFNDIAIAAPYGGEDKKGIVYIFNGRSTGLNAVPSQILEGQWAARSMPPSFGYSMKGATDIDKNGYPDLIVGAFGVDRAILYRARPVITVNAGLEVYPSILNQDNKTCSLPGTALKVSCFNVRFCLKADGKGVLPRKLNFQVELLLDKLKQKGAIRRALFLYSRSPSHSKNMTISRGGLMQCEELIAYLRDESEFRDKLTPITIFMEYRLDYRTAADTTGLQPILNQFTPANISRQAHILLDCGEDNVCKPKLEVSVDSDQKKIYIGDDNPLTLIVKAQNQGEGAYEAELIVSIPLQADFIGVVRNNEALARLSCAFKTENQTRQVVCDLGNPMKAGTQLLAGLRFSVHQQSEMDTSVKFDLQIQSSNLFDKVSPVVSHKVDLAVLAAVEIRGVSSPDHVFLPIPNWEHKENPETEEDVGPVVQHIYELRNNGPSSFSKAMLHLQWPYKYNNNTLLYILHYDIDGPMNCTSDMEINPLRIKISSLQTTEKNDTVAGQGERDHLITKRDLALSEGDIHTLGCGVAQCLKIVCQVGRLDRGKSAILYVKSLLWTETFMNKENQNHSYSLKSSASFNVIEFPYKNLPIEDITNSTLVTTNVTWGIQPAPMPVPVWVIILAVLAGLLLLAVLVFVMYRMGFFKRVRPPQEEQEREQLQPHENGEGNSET
T2 sequence (P05106 27-788): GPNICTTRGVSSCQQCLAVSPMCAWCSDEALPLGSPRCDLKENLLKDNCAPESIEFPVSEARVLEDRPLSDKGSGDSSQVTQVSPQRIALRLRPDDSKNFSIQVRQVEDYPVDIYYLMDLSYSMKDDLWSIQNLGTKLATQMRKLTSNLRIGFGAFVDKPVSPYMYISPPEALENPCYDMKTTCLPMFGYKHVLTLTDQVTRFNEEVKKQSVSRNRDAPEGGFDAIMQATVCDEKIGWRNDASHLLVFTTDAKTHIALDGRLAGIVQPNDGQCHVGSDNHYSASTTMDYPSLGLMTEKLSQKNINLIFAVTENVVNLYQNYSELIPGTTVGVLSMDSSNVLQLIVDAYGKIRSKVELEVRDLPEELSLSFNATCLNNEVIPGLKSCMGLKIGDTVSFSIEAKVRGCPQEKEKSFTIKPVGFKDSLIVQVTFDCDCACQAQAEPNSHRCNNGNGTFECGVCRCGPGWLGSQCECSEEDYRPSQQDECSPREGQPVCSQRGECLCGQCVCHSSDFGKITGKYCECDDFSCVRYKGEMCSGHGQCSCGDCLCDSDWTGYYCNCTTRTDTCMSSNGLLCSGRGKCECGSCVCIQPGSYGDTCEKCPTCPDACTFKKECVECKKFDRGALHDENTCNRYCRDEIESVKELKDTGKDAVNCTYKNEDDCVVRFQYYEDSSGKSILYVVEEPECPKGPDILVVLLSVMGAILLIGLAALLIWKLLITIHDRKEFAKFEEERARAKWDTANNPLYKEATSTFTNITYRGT

| Molecule | ERK1/2 activation in ErbB4-CHO cells [1] | Suppression of proliferation induced by wt NRG1 (175-222) in M21 cells ([2]; added together with 10 ng/ml wt NRG1 (175-222)) | Induction of proliferation of M21 melanoma cells [2] | Induction of proliferation of MCF-7 cells [3] | Adhesion of α6β4-CHO cells to the immobilized protein [4] | ERK1/2 activation in ErbB4-CHO cells ([1]; listed as wt NRG (175-222)) | Adhesion of mock-transfected K562 cells to the immobilized protein [5] | Co-precipitation of integrin β3 with ErbB3 in MCF-7 cells [6] | Levels of ErbB3 phosphorylation in anti-ErbB3 immunoprecipitates of MCF-7 cells ([6]; compared with WT NRG1α (175-241)) |
| --- | --- | --- | --- | --- | --- | --- | --- | --- | --- |
| 3KE (175-222): NRG1 (175-222) with Lys181/Lys185/Lys187 mutated to Glu; GTSHLVECAEEEETFCVNGGECFMVKDLSNPSRYLCKCQPGFTGARCT (SEQ ID NO:11) (integrin-binding site within human neuregulin, 3KE mutant, short version) | activated ERKI/2; also recorded: enhanced ERK1/2 activation | suppressed the proliferation induced by wt NRG1 (175-222) | did not induce proliferation | did not | did not adhere |  |  |  |  |
| wt NRG1 (175-222): wild type human neuregulin 1 fragment, EGF-like domain, residues 175-222 of SEQ ID NO:4 (SEQ ID NO:3) (GTSHLVKCAEKEKTFCVNGGECFMVKDLSNPSRYLCKCQPGFTGARCT; integrin-binding site within human neuregulin 1 EGF-like region and portion of alpha domain, residues 175-222 of human neuregulin 1 alpha) [reference compound] | suppressed ERK1/2 |  | did | induced cell proliferation | adhere | suppressed | did not |  |  |
| B1 |  |  |  |  |  |  | did not | increased the amount of integrin β3 protein that co-precipitates with ErbB3 |  |
| B2 |  |  |  |  |  |  |  | did not | less |
